{"source": "patent US20060069132A1", "about": "“Azolecarboxamide herbicides” (priority 2004, published 2006)", "key": {"Surinam grass": {"test_system": "Surinam grass", "assay": "Test B pre-/postemergence herbicide test", "assay_type": "in vivo, Urochloa decumbens", "conditions": "for Surinam Grass plant response rating: postemergence", "method_in_brief": "(§1)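 Formulation: non-phytotoxic solvent mix with surfactant. Timing: preemergence on seed and postemergence on 2–18 cm plants, applied concurrently. Readout after 13–15 d greenhouse: visual 0–100 control rating against controls.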"}, "barnyardgrass": {"test_system": "barnyardgrass", "assay": "Test C flooded paddy test", "assay_type": "in vivo, Echinochloa crus-galli", "method_in_brief": "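Scoring by eye, 12–14 days post-treatment, greenhouse-held plants vs. controls; 0 no effect, 100 complete control. Sprayed at 1–4 leaves (2–18 cm); paddy barnyardgrass at 2 leaves, flooded.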"}, "large crabgrass [1]": {"test_system": "large crabgrass", "assay": "Test B pre-/postemergence herbicide test", "assay_type": "in vivo, Digitaria sanguinalis", "conditions": "for Crabgrass, Large plant response rating: postemergence", "method_in_brief": "as §1"}, "rice": {"test_system": "rice", "assay": "Test B pre-/postemergence herbicide test", "assay_type": "in vivo, Oryza sativa", "conditions": "0 = no effect, 100 = complete control, preemergence", "method_in_brief": "as §1"}, "eastern black nightshade": {"test_system": "eastern black nightshade", "assay": "Test C pre-/postemergence herbicide test", "assay_type": "in vivo, Solanum ptycanthum", "conditions": "preemergence", "method_in_brief": "(§2)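 Seeds were planted and sprayed preemergence with test chemicals in a non-phytotoxic solvent mixture containing surfactant; postemergence treatments went onto plants 2 to 18 cm tall (1- to 4-leaf stage). After 12 to 14 days in a greenhouse, injury was rated visually against untreated controls on a 0–100 scale.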"}, "cocklebur": {"test_system": "cocklebur", "assay": "Test C pre-/postemergence herbicide test", "assay_type": "in vivo, Xanthium strumarium", "conditions": "preemergence", "method_in_brief": "as §2"}, "morningglory": {"test_system": "morningglory", "assay": "Test C pre-/postemergence herbicide test", "assay_type": "in vivo, Ipomoea coccinea", "set-up": "key to Plant response rating, Morningglory: 0 = no effect, 100 = complete control", "conditions": "preemergence", "method_in_brief": "as §2"}, "large crabgrass [2]": {"test_system": "large crabgrass", "assay": "Test C pre-/postemergence herbicide test", "assay_type": "in vivo, Digitaria sanguinalis", "conditions": "preemergence", "method_in_brief": "as §2"}, "yellow nutsedge": {"test_system": "yellow nutsedge", "assay": "Test C pre-/postemergence herbicide test", "assay_type": "in vivo, Cyperus esculentus", "conditions": "preemergence", "method_in_brief": "as §2"}, "johnsongrass": {"test_system": "johnsongrass", "assay": "Test C pre-/postemergence herbicide test", "assay_type": "in vivo, Sorghum halepense", "conditions": "preemergence", "method_in_brief": "as §2"}, "[3]": {"conditions": "125 g ai/ha, 0 = no effect, 100 = complete control, preemergence"}, "[4]": {"conditions": "125 g ai/ha, visual rating, scale 0 (no effect) to 100 (complete control)"}, "[5]": {"conditions": "500 g ai/ha, visual rating, 0 = no effect, 100 = complete control, preemergence"}, "[6]": {"conditions": "500 g ai/ha, scale 0 to 100, 0 is no effect, 100 is complete control"}, "[7]": {"conditions": "125 g ai/ha, scale 0 (no effect) to 100 (complete control), visual, 12 to 14 days"}}}
{"compound": "CCNC(=O)c1ccc(F)c(NC(=O)c2cc(C3(C)CC3)nn2CC)c1", "note": "[Compound 300]", "values": [{"measurement": "Surinam Grass plant response rating (0 to 100 scale)", "setting": "Surinam grass; [3]", "result": 80}, {"measurement": "Surinam Grass plant response rating", "setting": "Surinam grass; [4]", "result": 10}, {"measurement": "Plant response rating, Surinam Grass", "setting": "Surinam grass; [5]", "result": 100}, {"measurement": "Surinam Grass plant response rating", "setting": "Surinam grass; [6]", "result": 10}, {"measurement": "Barnyardgrass plant response rating", "setting": "barnyardgrass; 62 g ai/ha, scale 0 to 100 (0 no effect, 100 complete control)", "result": 35}, {"measurement": "Barnyardgrass plant response rating", "setting": "barnyardgrass; 125 g ai/ha, scale 0 to 100 (0 no effect, 100 complete control)", "result": 50}, {"measurement": "Barnyardgrass plant response rating", "setting": "barnyardgrass; 250 g ai/ha, scale of 0 to 100, 0 is no effect, 100 is complete control", "result": 90}, {"measurement": "Plant response rating, Barnyardgrass", "setting": "barnyardgrass; 500 g ai/ha, visual rating after 12 to 14 days, scale 0 to 100 (0 no effect, 100 complete control)", "result": 95}, {"measurement": "Crabgrass, Large plant response rating (0 to 100 scale)", "setting": "large crabgrass [1]; [3]", "result": 100}, {"measurement": "Crabgrass, Large plant response rating", "setting": "large crabgrass [1]; [4]", "result": 10}, {"measurement": "Plant response rating, Crabgrass, Large", "setting": "large crabgrass [1]; [5]", "result": 100}, {"measurement": "Crabgrass, Large plant response rating", "setting": "large crabgrass [1]; [6]", "result": 30}, {"measurement": "Rice plant response rating (0 to 100 scale)", "setting": "rice; 125 g ai/ha", "result": 40}, {"measurement": "Plant response rating, Rice", "setting": "rice; 500 g ai/ha, visual rating", "result": 70}, {"measurement": "Plant response rating, Nightshade", "setting": "eastern black nightshade; 62 g ai/ha, scale 0 to 100", "result": 100}, {"measurement": "Plant response rating, Nightshade", "setting": "eastern black nightshade; [7]", "result": 100}, {"measurement": "Plant response rating, Nightshade", "setting": "eastern black nightshade; 250 g ai/ha, scale 0-100", "result": 100}, {"measurement": "Plant response rating, Cocklebur", "setting": "cocklebur; 62 g ai/ha, scale 0 to 100", "result": 5}, {"measurement": "Plant response rating, Cocklebur", "setting": "cocklebur; [7]", "result": 5}, {"measurement": "Plant response rating, Cocklebur", "setting": "cocklebur; 250 g ai/ha, scale 0-100", "result": 5}, {"measurement": "Plant response rating, Morningglory", "setting": "morningglory; 62 g ai/ha, scale 0 to 100", "result": 5}, {"measurement": "Plant response rating, Morningglory", "setting": "morningglory; [7]", "result": 40}, {"measurement": "Plant response rating, Morningglory", "setting": "morningglory; 250 g ai/ha, scale 0-100", "result": 40}, {"measurement": "Plant response rating, Crabgrass, Large", "setting": "large crabgrass [2]; 62 g ai/ha, scale 0 to 100", "result": 100}, {"measurement": "Plant response rating, Crabgrass, Large", "setting": "large crabgrass [2]; [7]", "result": 100}, {"measurement": "Plant response rating, Crabgrass, Large", "setting": "large crabgrass [2]; 250 g ai/ha, scale 0-100", "result": 100}, {"measurement": "Plant response rating, Nutsedge, Yellow", "setting": "yellow nutsedge; 31 g ai/ha, scale 0 to 100, last section of Table C", "result": 0}, {"measurement": "Plant response rating, Nutsedge, Yellow", "setting": "yellow nutsedge; 62 g ai/ha, scale 0 to 100", "result": 0}, {"measurement": "Plant response rating, Nutsedge, Yellow", "setting": "yellow nutsedge; [7]", "result": 20}, {"measurement": "Plant response rating, Nutsedge, Yellow", "setting": "yellow nutsedge; 250 g ai/ha, scale 0-100", "result": 60}, {"measurement": "Plant response rating, Johnsongrass", "setting": "johnsongrass; 62 g ai/ha, scale 0 to 100", "result": 60}, {"measurement": "Plant response rating, Johnsongrass", "setting": "johnsongrass; [7]", "result": 85}, {"measurement": "Plant response rating, Johnsongrass", "setting": "johnsongrass; 250 g ai/ha, scale 0-100", "result": 95}]}
